Here are results for 1 molecule from patent US6090987A, “Metal-ligand complex catalyzed processes” (Union Carbide Chemicals & Plastics Technology Corporation, priority 1998, dated 2000).

The nature of assay [1]: Residual propylene hydroformylation activity after heat treatment, Ligand D catalyst (Table 1). The following applies: 125° C./50 hours, excess diene checked. Here is the method: (§1) About 20 milliliters of the solution was charged to a glass reactor via a syringe after purging the reactor with nitrogen (see Examples 14-20 below). After closing the reactor, the system was again purged with nitrogen and place in an oil bath heated to 100° C. The hydroformylation reaction in each experiment was conducted at a total gas pressure of 160 psig. The target partial pressure of hydrogen, carbon monoxide, and propylene being about 45 psia, 45 psia, and 5 psia respectively, with the remainder being nitrogen. The flows of the feed gases (carbon monoxide, hydrogen, propylene, and nitrogen) were controlled individually with mass flow meters. The feed gases were dispersed into the precursor solution via stainless steel 7-micron filters used as spargers. The unreacted portion of the feed gases stripped out the product aldehydes. Each experiment was operated for 24 hours under the above conditions. The activity is defined as the observed reaction rate divided by the predicted reaction rate. The reaction rates are expressed in terms of gram moles per liter per hour.
(§2) The same procedure as in Example 3 was followed except 2 milliliters of 1,3-butadiene was added to the generated catalyst and stirred for 5 minutes. Excess 1,3-butadiene was then removed by alternate evacuation and flushing with nitrogen. The resulting solution was heated at 125° C. as in Example 2, and 20 milliliters of the resulting solution was transferred to a glass reactor as in Example 2 and the activity determined.
The same procedure as in Example 4 was followed except Ligand D (as identified herein) was employed in place of Ligand F. The results are given in Table 1.
The same procedure as in Example 10 was followed except the fresh catalyst solution contained Ligand D in place of Ligand F. The results are given in Table 1.

A short description of assay [2]: Residual propylene hydroformylation activity after heat treatment, Ligand F catalyst (Table 1). Here is the method:
A catalyst solution (100 milliliters) was generated in a six ounce Fisher Porter Bottle by dissolving 0.063 grams of rhodium dicarbonyl 2,4-pentanedionate, 0.8 grams of Ligand F, 20 grams of n-butyraldehyde, and 78.7 grams of tetraethylene glycol dimethyl ether, subsequently alternately evacuating and flushing with nitrogen; and finally adding 60 psi of CO:H2, and placing the bottles in a 100° C. oil bath for 1 hour.
as §1, with “After” for “About 20 milliliters of the solution was charged to a glass reactor via a syringe after purging the reactor with nitrogen (see Examples 14-20 below). After”
The same procedure as in Example 2 was followed with the exception that a slow stream of 1,2-propadiene was purged through the initially generated catalyst solution for 5 minutes. Excess was then removed by alternately evacuating and flushing with nitrogen. The resulting solution was heated at 125° C. as in Example 2, and 20 milliliters of the resulting solution was transferred to a glass reactor as in Example 2 and the activity determined.
as §2
The same procedure as in Example 4 was followed with the exception that 50 milliliters of a catalyst solution generated as in Example 2 was treated with 0.5 milliliters of 2-methyl-1,3-butadiene (isoprene) in place of 1,3-butadiene.
A catalyst solution (20 milliliters) was generated in a Fisher Porter Bottle as in Example 2 under 60 psi CO:H2 for 1 hour, then cooled to room temperature and treated with 0.5 milliliters of 1,3-butadiene. The solution was removed from the Fisher Bottle by hypodermic syringe and transferred to a 100 milliliter stirred stainless vessel and maintained at 140° C. under 15 psi nitrogen for 14 hours. The resulting solution was then transferred to the glass reactors as in Example 2, and the residual catalyst activity measured. […]
The same procedure as in Example 8 was followed except allene was employed in place of 1,3-butadiene, and the resulting solution heated at 140° C. for 48 hours without removing excess allene.
A 20 milliliter sample of freshly generated catalyst solution (prepared as in Example 2) was charged to the glass reactors and the activity measured.
The same procedure as in Example 8 was followed except 0.4 grams of 1,3-cyclohexadiene was employed in place of 1,3-butadiene.

Where [3] appears, read: 125° C./24 hours, no excess diene.
[4] abbreviates: 140° C./14 hours, excess diene present.
The mark [5] stands for this setting: 140° C./48 hours, excess diene present.

As for `C=CC=C` [Butadiene, 1,3-butadiene], the “% Activity” value in assay [1] was determined as 116%; in assay [2] (setting [3]), 102%; in assay [2] (setting [4]) it was 25.2%; in assay [2] (setting [5]) it was 96.3%. In addition, the “Final Rate” value is given as 1.23 gram moles per liter per hour in assay [1], 2.23 gram moles per liter per hour in assay [2] (setting [3]), 0.55 gram moles per liter per hour in assay [2] (setting [4]) and 2.10 gram moles per liter per hour in assay [2] (setting [5]).
